In patent US7112685B2, “Labeled resiniferatoxin derivatives” (Ortho-McNeil Pharmaceutical, Inc., priority 2000, dated 2006):
Read-outs that look alike come from different tables or passages of the source.

Molecular target: T1, hVR1 receptors (Homo sapiens, UniProt Q8NER1)
T1 construct: expressed in transfected cells; host or cells: HEK293 cells (membranes)
Experiment: [3H] RTX Binding Assay (inhibition of [3H] RTX binding to membranes of HEK293 cells transfected with human VR1)
Description: Iodinated RTX derivatives of the present invention were tested for their ability to inhibit the binding of [^3H] RTX to hVR1 receptors in a [^3H] RTX Binding Assay.
HEK293 cells were transfected with human VRI vanilloid receptors, as described in U.S. patent application Ser. No. 09/292700 to Dubin, A., et. al, filed on Apr. 15, 1999 (herein incorporated by reference), and washed with Hank's Balanced Salt Solution, dissociated with cell dissocation buffer (Sigma), and then centrifuged at 1000 x g for 5 min. Cell pellets were homogenized in cold 20 mM HEPES buffer, pH 7.4, containing 5.8 mM NaCl, 320 mM sucrose, 2 mM MgCl2, […] and 5 mM KCl and centrifuged at 1000 x g for 15 min. The resultant supernate was then centrifuged at 40,000 x g for 15 min. The pelleted membranes were kept in an −80° C. freezer.
The assay procedure was modified from that described in Szallasi, A. and Blumberg, P. M., “[^3H] Resiniferatoxin binding by the vanilloid receptor: specific-related differences, effect of temperature and sulfhydryl reagents” (Naunyn-Schmiedeberg's Arch. Pharmacol., 1993, 347, 84-91). Briefly, about 120 μg protein/ml from membranes were incubated with indicated concentrations of [^3H] RTX in 0.5 ml of the HEPES buffer (pH 7.4) containing 0.25 mg/mL fat acid-free bovine serum albumin at 37° C. for 60 min. The reaction mixture was then cooled to 4° C., added 0.1 mg α1-acid glycoprotein to each sample and incubated at 4° C. for 15 min. The samples were centrifuged at 18500 x g for 15 min. The tip of the microcentrifuge tube containing the pellet was cut off. Bound radioactivity was quantified by scintillation counting. Non-specific binding was tested in the presence of 200 nM unlabeled RTX.
Membrane Incubation with [^3H] RTX and lodinated RTX Derivatives
Membranes were incubated with [^3H] RTX (0.4 nM) and varying concentrations of iodinated RTX derivatives at 37° C. for 60 min. […] RTX binding.

T1 sequence (Q8NER1 whole entry): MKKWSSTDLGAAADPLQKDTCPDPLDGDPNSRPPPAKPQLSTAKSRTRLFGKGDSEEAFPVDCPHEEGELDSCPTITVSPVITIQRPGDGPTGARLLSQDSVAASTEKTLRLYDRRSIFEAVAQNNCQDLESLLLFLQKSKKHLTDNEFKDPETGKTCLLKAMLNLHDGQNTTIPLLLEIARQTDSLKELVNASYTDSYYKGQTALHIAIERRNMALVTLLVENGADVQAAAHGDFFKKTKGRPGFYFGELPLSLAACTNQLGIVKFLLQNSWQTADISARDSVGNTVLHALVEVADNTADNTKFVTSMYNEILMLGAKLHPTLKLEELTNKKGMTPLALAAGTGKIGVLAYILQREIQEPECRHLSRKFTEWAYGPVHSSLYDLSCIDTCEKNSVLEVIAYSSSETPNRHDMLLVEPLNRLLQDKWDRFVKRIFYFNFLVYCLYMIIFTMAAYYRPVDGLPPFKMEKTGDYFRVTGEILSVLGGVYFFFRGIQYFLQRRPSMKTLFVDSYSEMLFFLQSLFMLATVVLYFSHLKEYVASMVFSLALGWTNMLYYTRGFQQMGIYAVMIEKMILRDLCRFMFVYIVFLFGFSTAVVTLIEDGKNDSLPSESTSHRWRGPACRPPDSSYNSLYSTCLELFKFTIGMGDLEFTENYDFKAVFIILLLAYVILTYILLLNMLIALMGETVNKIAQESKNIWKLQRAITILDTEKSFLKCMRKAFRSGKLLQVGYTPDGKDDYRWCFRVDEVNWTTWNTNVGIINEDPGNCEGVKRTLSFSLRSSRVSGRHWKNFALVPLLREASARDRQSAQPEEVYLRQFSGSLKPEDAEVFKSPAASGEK

Row | SMILES | IC50 [pM] | IC50 ([3H] RTX 0.4 nM, 37° C. for 60 min, HEK293 membranes, two experiments, each point in duplicate, read-out: IC50 Value for Binding to a hVR1 Receptor) [pM]
1 | C=C(C)C12CC(C)C34OC(Cc5ccccc5)(OC1C3C=C(COC(=O)Cc1cc(OC)c(OC(C)=O)cc1I)CC1(O)C(=O)C(C)=CC14)O2 (stereo not drawn) [Compound 1, 9,13,14-Orthophenylacetylresiniferonyl-20-(3-acetoxy-4-methoxy-6-Iodophenylacetate)] | 310 ± 60 | –
2 | C=C(C)C12CC(C)C34OC(Cc5ccccc5)(OC1C3C=C(COC(=O)Cc1cc(OC)c(O)cc1I)CC1(O)C(=O)C(C)=CC14)O2 (stereo not drawn) [Compound 2, 9,13,14-Orthophenylacetylresiniferonyl-20-(3-hydroxy-4-methoxy-6-iodophenylacetate)] | 220 ± 30 | –
3 | C=C(C)[C@]12C[C@@H](C)[C@@]34O[C@](Cc5ccccc5)(O[C@@H]1[C@@H]3C=C(COC(=O)Cc1ccc(O)c(OC)c1)C[C@]1(O)C(=O)C(C)=C[C@@H]41)O2 [RTX, resiniferatoxin] | – | 90 ± 120
